Test results taken from paper PMC4501720 (PLoS ONE, 2015).

system: whole blood cells of group 3 pigs vaccinated with BCG-pAg85A; format: cell-based, pigs (Sus scrofa domestica)

| Substance | IFN-γ levels, BCG / pAg85A animal number 1 | IFN-γ levels, BCG / pAg85A animal number 2 | IFN-γ levels, BCG / pAg85A animal number 3 | IFN-γ levels, BCG / pAg85A animal number 4 [pg/mL] | IFN-γ levels, BCG / pAg85A animal number 5 | IFN-γ levels, BCG / pAg85A animal number 6 |
| --- | --- | --- | --- | --- | --- | --- |
| 1–20: synthetic overlapping peptide of mature Ag85A, aa 1–20 (FSRPGLPVEYLQVPSPSMGR; UniProt P9WQP3 44-63, looked up, fragment) | <5 pg/mL | 305 pg/mL | <5 pg/mL | <5 | 84 pg/mL | 13,875 pg/mL |
| 11–30: synthetic overlapping peptide of mature Ag85A, aa 11–30 (LQVPSPSMGRDIKVQFQSGG; UniProt P9WQP3 54-73, looked up, fragment) | <5 pg/mL | 1,115 pg/mL | <5 pg/mL | <5 | 80 pg/mL | <5 pg/mL |
| 21–40: synthetic overlapping peptide of mature Ag85A, aa 21–40 (DIKVQFQSGGANSPALYLLD; UniProt P9WQP3 64-83, looked up, fragment) | <5 pg/mL | 681 pg/mL | <5 pg/mL | 128 | 142 pg/mL | <5 pg/mL |
| 35–53: synthetic overlapping peptide of mature Ag85A, aa 35–53 (ALYLLDGLRAQDDFSGWDI; UniProt P9WQP3 78-96, looked up, fragment) | 4,594 pg/mL | 438 pg/mL | 74 pg/mL | <5 | 2,105 pg/mL | <5 pg/mL |
| 51–70: synthetic overlapping peptide of mature Ag85A, aa 51–70 (WDINTPAFEWYDQSGLSVVM; UniProt P9WQP3 94-113, looked up, fragment) | 5,083 pg/mL | <5 pg/mL | <5 pg/mL | <5 | 3,125 pg/mL | <5 pg/mL |
| 61–80: synthetic overlapping peptide of mature Ag85A, aa 61–80 (YDQSGLSVVMPVGGQSSFYS; UniProt P9WQP3 104-123, looked up, fragment) | 8,179 pg/mL | 354 pg/mL | 579 pg/mL | 75 | 3,611 pg/mL | 444 pg/mL |
| 71–90: synthetic overlapping peptide of mature Ag85A, aa 71–90 (PVGGQSSFYSDWYQPACGKA; UniProt P9WQP3 114-133, looked up, fragment) | 217 pg/mL | <5 pg/mL | <5 pg/mL | <5 | 289 pg/mL | <5 pg/mL |
| 81–100: synthetic overlapping peptide of mature Ag85A, aa 81–100 (DWYQPACGKAGCQTYKWETF; UniProt P9WQP3 124-143, looked up, fragment) | 1,900 pg/mL | 56 pg/mL | 2,968 pg/mL | 170 | 1,547 pg/mL | <5 pg/mL |
| 91–108: 18-mer peptide spanning the sequence of Ag85B aa 91–108, used instead of Ag85A 91–110 (GCQTYKWETFLTSELPQW; UniProt P9WQP1 131-148, looked up, fragment) | <5 pg/mL | 2,332 pg/mL | 2,377 pg/mL | 308 | 748 pg/mL | <5 pg/mL |
| 101–120: synthetic overlapping peptide of mature Ag85A, aa 101–120 (LTSELPGWLQANRHVKPTGS; UniProt P9WQP3 144-163, looked up, fragment) | 150 pg/mL | 1,646 pg/mL | 1,177 pg/mL | <5 | 319 pg/mL | <5 pg/mL |
| 111–130: synthetic overlapping peptide of mature Ag85A, aa 111–130 (ANRHVKPTGSAVVGLSMAAS; UniProt P9WQP3 154-173, looked up, fragment) | 15,124 pg/mL | 2,879 pg/mL | 1,415 pg/mL | 33 | 961 pg/mL | <5 pg/mL |
| 121–140: synthetic overlapping peptide of mature Ag85A, aa 121–140 (AVVGLSMAASSALTLAIYHP; UniProt P9WQP3 164-183, looked up, fragment) | 16,699 pg/mL | 2,367 pg/mL | 306 pg/mL | <5 | 1,023 pg/mL | <5 pg/mL |
| 141–160: synthetic overlapping peptide of mature Ag85A, aa 141–160 (QQFVYAGAMSGLLDPSQAMG; UniProt P9WQP3 184-203, looked up, fragment) | 9,718 pg/mL | 232 pg/mL | 1,330 pg/mL | 894 | 3,006 pg/mL | 837 pg/mL |
| 151–170: synthetic overlapping peptide of mature Ag85A, aa 151–170 (GLLDPSQAMGPTLIGLAMGD; UniProt P9WQP3 194-213, looked up, fragment) | 1,020 pg/mL | <5 pg/mL | 257 pg/mL | 71 | 349 pg/mL | <5 pg/mL |
| 161–180: synthetic overlapping peptide of mature Ag85A, aa 161–180 (PTLIGLAMGDAGGYKASDMW; UniProt P9WQP3 204-223, looked up, fragment) | 1,501 pg/mL | <5 pg/mL | 556 pg/mL | 37 | 463 pg/mL | <5 pg/mL |
